Legend:
[1] = tested on: PSD-95 protein in PC12 cells; test: Level of PSD-95 in PC12 cells incubated with test compound; type: cell-based; conditions: incubation 2 or 4 days
Description: Postsynaptic protein PSD-95 is a member of the membrane-associated guanylate kinase (MAGUK) family. The protein is almost exclusively located in the postsynaptic density of neurons and is involved in anchoring synaptic proteins. The inventor hypothesized that active agents that increase the level of the PSD-95 protein in cultured cells may be screened for their ability to activate P2Y receptors in animal models.
PC12 cells, a cell line ultimately derived from neural cells, are maintained in Minimal Essential Medium (MEM; Invitrogen, Carlsbad, Calif.) supplemented with 10% fetal bovine serum (FBS) at 37° C. Experimental incubations are for 2 or 4 days in medium with or without test compounds.
The activity of each test compound is assessed by determining the effect of each test compound on the level of PSD-95 in the cells.

brain dendritic spines = test: Brain dendritic spines in laboratory animals injected intraperitoneally with test compound; type: in vivo; conditions: intraperitoneal injection after 6 weeks of diet
Description: The laboratory animals are fed a food composition with or without a synthetic diet enriched with uridine, DHA and choline for 6 weeks, and are then intraperitoneally injected with a composition comprising the test compound.

[2] = rats; cited from earlier work

Row | Compound | level of the PSD-95 protein in tissue culture [1] | level of brain dendritic spines in laboratory animals (brain dendritic spines) | uridine entering the liver via the portal vein metabolized in a single pass [2]
1 | Nc1ncnc2c1ncn2[C@@H]1O[C@H](COP(=O)(O)OP(=O)(O)O)[C@@H](O)[C@H]1O [ADP] | effective | effective | –
2 | O=c1ccn([C@@H]2O[C@H](COP(=O)(O)OP(=O)(O)OP(=O)(O)O)[C@@H](O)[C@H]2O)c(=S)[nH]1 [2-thio-UTP] | effective | effective | –
3 | Nc1ncnc2c1ncn2[C@@H]1O[C@H](COP(=O)(O)OP(=O)(O)OP(=O)(O)OP(=O)(O)OC[C@H]2O[C@@H](n3ccc(=O)[nH]c3=O)[C@H](O)[C@@H]2O)[C@@H](O)[C@H]1O [Ap4U] | effective | effective | –
4 | O=c1ccn([C@@H]2O[C@H](COP(=O)(O)OP(=O)(O)OP(O)(O)=S)[C@@H](O)[C@H]2O)c(=O)[nH]1 [UTPγS, uridine γ-thiophosphate] | effective | effective | –
5 | Nc1ncnc2c1ncn2[C@@H]1O[C@H](COP(=O)(O)OP(=O)(O)OP(=O)(O)OP(=O)(O)OC[C@H]2O[C@@H](n3cnc4c(N)ncnc43)[C@H](O)[C@@H]2O)[C@@H](O)[C@H]1O [Ap4A] | effective | effective | –
6 | Nc1ncnc2c1ncn2[C@@H]1O[C@H](COP(=O)(O)CP(=O)([O-])OP(=O)([O-])[O-])[C@@H](O)[C@H]1O.[Na+].[Na+].[Na+] [α,β-Methyleneadenosine 5′-triphosphate trisodium salt] | effective | effective | –
7 | diuridine triphosphate | effective | effective | –
8 | O=c1ccn([C@@H]2O[C@H](COP(=O)(O)OP(=O)(O)OP(=O)(O)OP(=O)(O)OC[C@H]3O[C@@H](n4ccc(=O)[nH]c4=O)[C@H](O)[C@@H]3O)[C@@H](O)[C@H]2O)c(=O)[nH]1 [INS365] | effective | effective | –
9 | N[C@@H]1[C@H](O)[C@@H](COP(=O)(O)OP(=O)(O)OP(=O)(O)O)O[C@H]1n1ccc(=O)[nH]c1=S [MRS 2698] | effective | effective | –
10 | BzATP triethylammonium salt | effective | effective | –
11 | O=c1[nH]cnc2c1ncn2[C@@H]1O[C@H](COP(=O)(O)OP(=O)(O)OP(=O)(O)O)[C@@H](O)[C@H]1O [ITP] | effective | effective | –
12 | Nc1ccn([C@@H]2O[C@H](COP(=O)(O)OP(=O)(O)OP(=O)(O)O)[C@@H](O)[C@H]2O)c(=O)n1 [CTP, cytidine-triphosphate] | effective | effective | –
13 | Nc1nc2c(ncn2[C@@H]2O[C@H](COP(=O)(O)OP(=O)(O)OP(=O)(O)O)[C@@H](O)[C@H]2O)c(=O)[nH]1 [GTP] | effective | effective | –
14 | O=C(Cn1c(=O)ccn(C2OC(COP(=O)(O)OP(=O)(O)O)C(O)C2O)c1=O)c1ccccc1 (stereo not shown) [PSB 0474] | effective | effective | –
15 | CCCCCCSc1nc(N)c2ncn([C@@H]3O[C@H](COP(=O)(O)O)[C@@H](O)[C@H]3O)c2n1 [2-(hexylthio) (HT)-AMP] | effective | effective | –
16 | O=c1ccn([C@@H]2O[C@H](COP(=O)(O)OP(O)(O)=S)[C@@H](O)[C@H]2O)c(=O)[nH]1 [UDPβS, Uridine β-thiodiphosphate] | effective | effective | –
17 | CSc1nc(N)c2ncn([C@@H]3O[C@H](COP(=O)(O)OP(=O)(O)OP(=O)(O)O)[C@@H](O)[C@H]3O)c2n1 [2-MeSATP] | effective | effective | –
18 | O=c1ccn([C@@H]2O[C@H](COP(=O)([O-])OP(=O)([O-])O[C@H]3O[C@H](CO)[C@@H](O)[C@H](O)[C@H]3O)[C@@H](O)[C@H]2O)c(=S)[nH]1.[Na+].[Na+] [MRS 2690] | effective | effective | –
19 | O=c1ccn([C@@H]2O[C@H](CO)[C@@H](O)[C@H]2O)c(=O)[nH]1 [uridine] | – | – | more than 90%
20 | Nc1ncnc2c1ncn2[C@@H]1O[C@H](COP(=O)(O)OP(=O)([O-])OP(=O)([O-])O)[C@@H](O)[C@H]1O.[Na+].[Na+] [ATP disodium salt] | effective | – | –
21 | Nc1ccn([C@H]2C[C@H](O)[C@@H](COP(=O)(O)OP(=O)(O)OP(=O)(O)OP(=O)(O)OC[C@H]3O[C@@H](n4ccc(=O)[nH]c4=O)[C@H](O)[C@@H]3O)O2)c(=O)n1 [denufosol] | effective | effective | –
22 | CSc1nc(N)c2ncn([C@@H]3O[C@H](COP(=O)([O-])OP(=O)([O-])[O-])[C@@H](O)[C@H]3O)c2n1.[Na+].[Na+].[Na+] [2-Methylthio-ADP trisodium salt] | effective | effective | –
23 | diadenosine pentaphosphate | effective | effective | –
24 | O=c1ccn([C@@H]2O[C@H](COP(=O)(O)OP(=O)(O)O)[C@@H](O)[C@H]2O)c(=O)[nH]1 [UDP, uridine 5′-diphosphate] | effective | effective | –
25 | O=c1ccn(C2OC(COP(=O)([O-])OP(=O)([O-])OP(=O)([O-])S)C(O)C2O)c(=O)[nH]1.[Na+].[Na+].[Na+] (stereo not shown) [UTPγS trisodium salt] | effective | effective | –
26 | Nc1ncnc2c1ncn2[C@@H]1O[C@H](COP(=O)(O)CP(=O)(O)OP(=O)(O)O)[C@@H](O)[C@H]1O [α,β-methylene ATP] | effective | effective | –
27 | O=c1ccn([C@@H]2O[C@H](COP(=O)([O-])OP(=O)([O-])OP(=O)([O-])[O-])[C@@H](O)[C@H]2O)c(=S)[nH]1.[Na+].[Na+].[Na+].[Na+] [2-ThioUTP tetrasodium salt] | effective | effective | –
28 | CSc1nc(N)c2ncn([C@H]3[C@H](O)[C@H](O)[C@]4(COP(=O)(O)OP(=O)(O)O)C[C@H]34)c2n1 [MRS 2365] | effective | effective | –
29 | O=c1ccn([C@@H]2O[C@H](COP(=O)(O)OP(=O)(O)OP(=O)(O)O)[C@@H](O)[C@H]2O)c(=O)[nH]1 [UTP, uridine 5′-triphosphate] | effective | effective | –
30 | N[C@@H]1[C@H](O)[C@@H](COP(=O)(O)OP(=O)(O)OP(=O)(O)O)O[C@H]1n1ccc(=O)[nH]c1=O [2′-deoxy-2′-amino-UTP] | effective | effective | –

Reference: patent publication US8691775B2, “Use of drugs that activate P2Y receptors to enhance synaptogenesis” (Back Bay Scientific, LLC, priority 2010, dated 2014)
